Experimental data from article PMC5882964, “Aspermerodione, a novel fungal metabolite with an unusual 2,6-dioxabicyclo[2.2.1]heptane skeleton, as an inhibitor of penicillin-binding protein 2a” (Scientific Reports, 2018).

Target: T1, penicillin-binding protein 2a (PBP2a) (Staphylococcus aureus, UniProt Q7DHH4)
T1 construct: gene mecA; residues 23-668, pET28a, from mecA of Staphylococcus aureus ATCC 43300
Assay: microscale thermophoresis (MST) with labelled recombinant PBP2a

T1 sequence (Q7DHH4 entry or part of it): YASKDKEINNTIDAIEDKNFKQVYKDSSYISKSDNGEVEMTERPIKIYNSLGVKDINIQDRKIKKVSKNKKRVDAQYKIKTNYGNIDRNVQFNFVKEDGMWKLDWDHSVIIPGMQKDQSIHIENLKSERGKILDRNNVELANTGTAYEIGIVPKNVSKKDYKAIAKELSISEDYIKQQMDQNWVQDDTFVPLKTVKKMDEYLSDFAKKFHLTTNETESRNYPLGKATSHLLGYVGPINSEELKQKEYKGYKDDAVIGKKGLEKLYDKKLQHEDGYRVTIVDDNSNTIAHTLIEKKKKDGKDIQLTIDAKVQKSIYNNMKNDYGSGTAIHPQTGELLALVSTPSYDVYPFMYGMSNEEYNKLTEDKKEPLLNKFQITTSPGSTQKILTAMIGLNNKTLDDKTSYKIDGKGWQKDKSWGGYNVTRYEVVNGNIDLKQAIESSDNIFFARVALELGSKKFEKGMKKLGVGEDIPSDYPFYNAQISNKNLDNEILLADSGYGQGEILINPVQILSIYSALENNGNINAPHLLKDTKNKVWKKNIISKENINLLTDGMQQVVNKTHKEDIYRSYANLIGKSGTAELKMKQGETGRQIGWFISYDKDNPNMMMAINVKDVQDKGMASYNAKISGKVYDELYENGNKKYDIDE

**Q.** With `COC(=O)C1=C[C@]2(C)C[C@@]34CC[C@H]5C(C)(C)C(=O)C=C[C@]5(C)[C@]35OC[C@]14[C@](C)(CC2=O)O5` [compound 1, aspermerodione] as the compound, how does the Kd read?
**A.** 18.4 ± 1.29 µM
